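Assay format: 96-well plates, 48-hour exposure. GI50 marks 50% less growth. Definition used: TGI = concentration required for complete inhibition of growth.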
Key:
Experiment in all cases: NCI-60 cell line screen, 48 h
SF-295 CNS = test system: SF-295 CNS
SK-OV-3 ovarian = test system: SK-OV-3 ovarian
HCC-2998 colon = test system: HCC-2998 colon
MDA-MB-231 breast = test system: MDA-MB-231 breast
UACC-257 melanoma = test system: UACC-257 melanoma
SF-539 CNS = test system: SF-539 CNS
CCRF-CEM leukemia = test system: CCRF-CEM leukemia
SR leukemia = test system: SR leukemia
M14 melanoma = test system: M14 melanoma
OVCAR-8 ovarian = test system: OVCAR-8 ovarian
HL-60(TB) leukemia = test system: HL-60(TB) leukemia
SK-MEL-5 melanoma = test system: SK-MEL-5 melanoma
PC-3 prostate = test system: PC-3 prostate
SN12C renal = test system: SN12C renal
UO-31 renal = test system: UO-31 renal
NCI-H460 lung = test system: NCI-H460 lung
SNB-19 CNS = test system: SNB-19 CNS
EKVX NSCLC = test system: EKVX NSCLC
NCI-H522 lung = test system: NCI-H522 lung
HOP-62 NSCLC = test system: HOP-62 NSCLC
SK-MEL-2 melanoma = test system: SK-MEL-2 melanoma
HT29 colon = test system: HT29 colon
OVCAR-5 ovarian = test system: OVCAR-5 ovarian
KM12 colon = test system: KM12 colon
SW-620 colon = test system: SW-620 colon
OVCAR-4 ovarian = test system: OVCAR-4 ovarian
MOLT-4 leukemia = test system: MOLT-4 leukemia
SK-MEL-28 melanoma = test system: SK-MEL-28 melanoma
HCT-15 colon = test system: HCT-15 colon
HOP-92 NSCLC = test system: HOP-92 NSCLC
ACHN renal = test system: ACHN renal
BT-549 breast = test system: BT-549 breast
UACC-62 melanoma = test system: UACC-62 melanoma
A549 NSCLC = test system: A549 NSCLC
LOX IMVI melanoma = test system: LOX IMVI melanoma
NCI-H23 lung = test system: NCI-H23 lung
SF-268 CNS = test system: SF-268 CNS
MDA-MB-435 = test system: MDA-MB-435
RXF 393 renal = test system: RXF 393 renal
HCT-116 colon = test system: HCT-116 colon
NCI-H226 lung = test system: NCI-H226 lung
A498 renal = test system: A498 renal
MALME-3M melanoma = test system: MALME-3M melanoma
786-0 renal = test system: 786-0 renal
CAKI-1 renal = test system: CAKI-1 renal
TK-10 renal = test system: TK-10 renal
MCF7 breast = test system: MCF7 breast
DU-145 prostate = test system: DU-145 prostate
SNB-75 CNS = test system: SNB-75 CNS
IGROV1 ovarian = test system: IGROV1 ovarian
COLO 205 colon = test system: COLO 205 colon
U251 CNS = test system: U251 CNS
HS 578T breast = test system: HS 578T breast
T-47D breast = test system: T-47D breast
K-562 leukemia = test system: K-562 leukemia
OVCAR-3 ovarian = test system: OVCAR-3 ovarian
MDA-MB-468 breast = test system: MDA-MB-468 breast
RPMI-8226 leukemia = test system: RPMI-8226 leukemia

Question: `CN(C)c1ccnc(NCCCSC(c2ccccc2)(c2ccccc2)c2ccccc2)c1` was tested. Which GI50 (SF-295 CNS) did it give?
Answer: 11.4 µM

Question: What about the TGI (SF-295 CNS) of the same compound?
Answer: 26.2 µM

Question: What about the GI50 (SK-OV-3 ovarian) of the same compound?
Answer: 13.5 µM

Question: And the TGI (SK-OV-3 ovarian)?
Answer: 26.8 µM

Question: And the GI50 (HCC-2998 colon)?
Answer: 2.55 µM

Question: What about the TGI (HCC-2998 colon) of the same compound?
Answer: 7.13 µM

Question: What about the GI50 (MDA-MB-231 breast) of the same compound?
Answer: 5.71 µM

Question: And the TGI (MDA-MB-231 breast)?
Answer: 20.2 µM

Question: What about the GI50 (UACC-257 melanoma) of the same compound?
Answer: 3.07 µM

Question: What about the TGI (UACC-257 melanoma) of the same compound?
Answer: 11.6 µM

Question: And the GI50 (SF-539 CNS)?
Answer: 6.82 µM

Question: And the TGI (SF-539 CNS)?
Answer: 21.9 µM

Question: What about the GI50 (CCRF-CEM leukemia) of the same compound?
Answer: 3.94 µM

Question: What about the TGI (CCRF-CEM leukemia) of the same compound?
Answer: 17 µM

Question: What about the GI50 (SR leukemia) of the same compound?
Answer: 2.76 µM

Question: What about the TGI (SR leukemia) of the same compound?
Answer: 7.84 µM

Question: And the GI50 (M14 melanoma)?
Answer: 3.81 µM

Question: What about the TGI (M14 melanoma) of the same compound?
Answer: 13.3 µM

Question: And the GI50 (OVCAR-8 ovarian)?
Answer: 10.3 µM

Question: What about the TGI (OVCAR-8 ovarian) of the same compound?
Answer: 28 µM

Question: What about the GI50 (HL-60(TB) leukemia) of the same compound?
Answer: 3.06 µM

Question: What about the TGI (HL-60(TB) leukemia) of the same compound?
Answer: 10.5 µM

Question: And the GI50 (SK-MEL-5 melanoma)?
Answer: 3.93 µM

Question: And the TGI (SK-MEL-5 melanoma)?
Answer: 14.2 µM

Question: And the GI50 (PC-3 prostate)?
Answer: 4.41 µM

Question: What about the TGI (PC-3 prostate) of the same compound?
Answer: 16.3 µM

Question: What about the GI50 (SN12C renal) of the same compound?
Answer: 11.1 µM

Question: And the TGI (SN12C renal)?
Answer: 25.8 µM

Question: What about the GI50 (UO-31 renal) of the same compound?
Answer: 5.4 µM

Question: And the TGI (UO-31 renal)?
Answer: 21.1 µM

Question: And the GI50 (NCI-H460 lung)?
Answer: 4.85 µM

Question: And the TGI (NCI-H460 lung)?
Answer: 17.1 µM

Question: What about the GI50 (SNB-19 CNS) of the same compound?
Answer: 15.9 µM

Question: What about the TGI (SNB-19 CNS) of the same compound?
Answer: 31.5 µM

Question: And the GI50 (EKVX NSCLC)?
Answer: 14.2 µM

Question: What about the TGI (EKVX NSCLC) of the same compound?
Answer: 29.6 µM

Question: And the GI50 (NCI-H522 lung)?
Answer: 12 µM

Question: What about the TGI (NCI-H522 lung) of the same compound?
Answer: 26.6 µM

Question: What about the GI50 (HOP-62 NSCLC) of the same compound?
Answer: 14.5 µM

Question: What about the TGI (HOP-62 NSCLC) of the same compound?
Answer: 29.2 µM

Question: What about the GI50 (SK-MEL-2 melanoma) of the same compound?
Answer: 16.6 µM

Question: And the TGI (SK-MEL-2 melanoma)?
Answer: 30.7 µM

Question: What about the GI50 (HT29 colon) of the same compound?
Answer: 3 µM

Question: And the TGI (HT29 colon)?
Answer: 10.7 µM

Question: What about the GI50 (OVCAR-5 ovarian) of the same compound?
Answer: 11.9 µM

Question: And the TGI (OVCAR-5 ovarian)?
Answer: 26 µM

Question: What about the GI50 (KM12 colon) of the same compound?
Answer: 5.57 µM

Question: And the TGI (KM12 colon)?
Answer: 17.8 µM

Question: And the GI50 (SW-620 colon)?
Answer: 4.42 µM

Question: And the TGI (SW-620 colon)?
Answer: 16.1 µM

Question: And the GI50 (OVCAR-4 ovarian)?
Answer: 11.8 µM

Question: And the TGI (OVCAR-4 ovarian)?
Answer: 29.8 µM

Question: And the GI50 (MOLT-4 leukemia)?
Answer: 3.62 µM

Question: What about the TGI (MOLT-4 leukemia) of the same compound?
Answer: 15 µM

Question: And the GI50 (SK-MEL-28 melanoma)?
Answer: 1.75 µM

Question: What about the TGI (SK-MEL-28 melanoma) of the same compound?
Answer: 3.74 µM

Question: And the GI50 (HCT-15 colon)?
Answer: 5.19 µM

Question: What about the TGI (HCT-15 colon) of the same compound?
Answer: 19.6 µM

Question: What about the GI50 (HOP-92 NSCLC) of the same compound?
Answer: 3.3 µM

Question: What about the TGI (HOP-92 NSCLC) of the same compound?
Answer: 15.8 µM

Question: What about the GI50 (ACHN renal) of the same compound?
Answer: 8.67 µM

Question: And the TGI (ACHN renal)?
Answer: 24.8 µM

Question: What about the GI50 (BT-549 breast) of the same compound?
Answer: 11.5 µM

Question: And the TGI (BT-549 breast)?
Answer: 25 µM

Question: And the GI50 (UACC-62 melanoma)?
Answer: 7.5 µM

Question: And the TGI (UACC-62 melanoma)?
Answer: 21.6 µM

Question: What about the GI50 (A549 NSCLC) of the same compound?
Answer: 7.35 µM

Question: What about the TGI (A549 NSCLC) of the same compound?
Answer: 21.6 µM

Question: And the GI50 (LOX IMVI melanoma)?
Answer: 2.96 µM

Question: And the TGI (LOX IMVI melanoma)?
Answer: 10.6 µM

Question: And the GI50 (NCI-H23 lung)?
Answer: 12.9 µM

Question: And the TGI (NCI-H23 lung)?
Answer: 26.3 µM

Question: And the GI50 (SF-268 CNS)?
Answer: 14.5 µM

Question: And the TGI (SF-268 CNS)?
Answer: 30.5 µM

Question: And the GI50 (MDA-MB-435)?
Answer: 8.6 µM

Question: What about the TGI (MDA-MB-435) of the same compound?
Answer: 20.9 µM

Question: And the GI50 (RXF 393 renal)?
Answer: 2.58 µM

Question: And the TGI (RXF 393 renal)?
Answer: 9.7 µM

Question: And the GI50 (HCT-116 colon)?
Answer: 3.97 µM

Question: What about the TGI (HCT-116 colon) of the same compound?
Answer: 17 µM

Question: What about the GI50 (NCI-H226 lung) of the same compound?
Answer: 10.9 µM

Question: And the TGI (NCI-H226 lung)?
Answer: 28.1 µM

Question: And the GI50 (A498 renal)?
Answer: 14.9 µM

Question: What about the TGI (A498 renal) of the same compound?
Answer: 29 µM

Question: And the GI50 (MALME-3M melanoma)?
Answer: 1.55 µM

Question: What about the TGI (MALME-3M melanoma) of the same compound?
Answer: 3.19 µM

Question: And the GI50 (786-0 renal)?
Answer: 9.86 µM

Question: And the TGI (786-0 renal)?
Answer: 25.8 µM

Question: What about the GI50 (CAKI-1 renal) of the same compound?
Answer: 7.48 µM

Question: And the TGI (CAKI-1 renal)?
Answer: 21 µM

Question: What about the GI50 (TK-10 renal) of the same compound?
Answer: 12.4 µM

Question: What about the TGI (TK-10 renal) of the same compound?
Answer: 25.4 µM

Question: What about the GI50 (MCF7 breast) of the same compound?
Answer: 3.96 µM

Question: What about the TGI (MCF7 breast) of the same compound?
Answer: 16.6 µM

Question: And the GI50 (DU-145 prostate)?
Answer: 11 µM

Question: And the TGI (DU-145 prostate)?
Answer: 23 µM

Question: And the GI50 (SNB-75 CNS)?
Answer: 11.9 µM

Question: And the TGI (SNB-75 CNS)?
Answer: 24.3 µM

Question: And the GI50 (IGROV1 ovarian)?
Answer: 11.4 µM

Question: What about the TGI (IGROV1 ovarian) of the same compound?
Answer: 27.9 µM

Question: What about the GI50 (COLO 205 colon) of the same compound?
Answer: 1.87 µM

Question: What about the TGI (COLO 205 colon) of the same compound?
Answer: 3.44 µM

Question: What about the GI50 (U251 CNS) of the same compound?
Answer: 7.78 µM

Question: And the TGI (U251 CNS)?
Answer: 21.7 µM

Question: And the GI50 (HS 578T breast)?
Answer: 11.3 µM

Question: What about the TGI (HS 578T breast) of the same compound?
Answer: 35.3 µM

Question: What about the GI50 (T-47D breast) of the same compound?
Answer: 11.4 µM

Question: What about the TGI (T-47D breast) of the same compound?
Answer: 29 µM

Question: And the GI50 (K-562 leukemia)?
Answer: 2.88 µM

Question: And the TGI (K-562 leukemia)?
Answer: 10.4 µM

Question: What about the GI50 (OVCAR-3 ovarian) of the same compound?
Answer: 7.26 µM

Question: What about the TGI (OVCAR-3 ovarian) of the same compound?
Answer: 20.2 µM

Question: And the GI50 (MDA-MB-468 breast)?
Answer: 2.01 µM

Question: And the TGI (MDA-MB-468 breast)?
Answer: 5.63 µM

Question: And the GI50 (RPMI-8226 leukemia)?
Answer: 3.43 µM

Question: What about the TGI (RPMI-8226 leukemia) of the same compound?
Answer: 12.3 µM
